Measured values as given in patent US20070042997A1, “Medicament for treatment of dermal pigmentation” (priority 2003, published 2007).

Tested on: melanocytes
Assay: Proliferation inhibitory test against melanocyte caused by ultraviolet irradiation
Format: cell-based
Conditions: cultured melanocytes, compound at 1 μg/ml
Procedure: Proliferation Inhibitory Test Against Melanocyte Caused by Ultraviolet Irradiation
Melanocytes were cultured according to the authentic method, and the proliferation of melanocytes in the presence or absence of test drugs under the ultraviolet irradiation was measured.

## O=C(Nc1cc(C(F)(F)F)cc(C(F)(F)F)c1)c1cc(Cl)ccc1O [Compound 50, N-[3,5-bis(trifluoromethyl)phenyl]-5-chloro-2-hydroxybenzamide]
  inhibition of transformation and proliferation of melanocyte under ultraviolet irradiation: almost completely inhibited
